Test results published in patent publication US7605168B2 (Plexxikon, Inc., priority 2004, dated 2009).

Legend:
[1] = biological target: T1, PDE4B: catalytic domain of human PDE4B from S152-S528 (Homo sapiens, UniProt Q07343); assay: PDE4 IC50 determination by Scintillation Proximity Assay (SPA), PDE4B catalytic domain; assay type: biochemical; conditions: [3H]cAMP SPA, 30 min at 30° C.
T1 construct: The catalytic domain of human PDE4B from S152-S528; His6 (N, cleaved yes); thrombin cleavage site (N, cleaved yes); made in house; host or cells: E. coli BL21 (DE3) RIL
Outline: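 Human PDE4B catalytic domain (80 ng/ml) hydrolysed [3H]cAMP in 50 mM Tris pH 7.5, 8.3 mM MgCl, 1.7 mM EGTA, 0.01% BSA for 30 min at 30 °C. Reaction was stopped with yttrium silicate SPA beads in 18 mM ZnSO4, and bound [3H]AMP was counted by scintillation. IC50 came from non-linear regression.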

[2] = biological target: T2, PDE4B2: full-length human PDE4B2 isozyme (Homo sapiens, UniProt Q07343); assay: PDE4 IC50 determination by Scintillation Proximity Assay (SPA), full-length PDE4B2; assay type: biochemical; conditions: cell lysate, [3H]cAMP SPA
T2 construct: made in house; host or cells: baculovirus infected insect cells (pFastBacHT)
Outline: (§1)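 Unpurified enzyme from cell lysates (PDE4B2 2.5 μl, PDE4D5 0.083 μl of 50% glycerol stock/ml) hydrolysing [3H]cAMP in 50 mM Tris pH 7.5, 8.3 mM MgCl, 1.7 mM EGTA, 0.01% BSA, 30 min at 30 °C. Stopped with yttrium silicate SPA beads in 18 mM ZnSO4; bead-bound [3H]AMP counted. IC50 by non-linear regression.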

[3] = biological target: T3, PDE4D: catalytic domain S316-V692 (Homo sapiens, UniProt Q08499); assay: PDE4 IC50 determination by Scintillation Proximity Assay (SPA), PDE4D catalytic domain; assay type: biochemical; conditions: [3H]cAMP SPA, 30 min at 30° C.
T3 construct: pET15S PDE4D S316-V692-X; His6 (N, cleaved yes); thrombin cleavage site (N, cleaved yes); made in house; host or cells: E. coli BL21 (DE3) RIL
Experimental: IC50s were determined by Scintillation Proximity Assay (SPA). The principle of the assay is based on the fact that cAMP, the PDE4 substrate, binds weakly to Yittrium Silicate SPA beads, whereas AMP, the product of PDE4 hydrolysis binds strongly. Thus, the extent of PDE4 hydrolysis of a sample of [^3H]cAMP can be measured because only the [^3H]AMP produced by PDE4 hydrolysis will bind to the SPA beads and produce a scintillation signal.
[…] Enzyme was stored in 50% glycerol at −20°. See Example 144.
Compounds tested (see Tables 5 for compounds and results) were 3-fold serially diluted 11 times in DMSO from a starting concentration of 4 mM or 40 μM, depending on compound potency. 1 μl of each dilution was transferred into duplicate wells of a white polystyrene 384-well assay plate (Corning #3710). In addition to the compound dilutions, each assay plate contained control wells with 1 μl of DMSO (to define 0% enzyme inhibition) or 1 μl of 200 μM roflumilast (to define 100% enzyme inhibition). Using a Beckman FX robot, 10 μl of [^3H] cAMP (Amersham TRK559) at […] in assay buffer (50 mM Tris, pH 7.5; 8.3 mM MgCl; 1.7 mM EGTA; 0.01% BSA) was transferred to each assay well. Next, 10 μl of PDE4 enzyme in assay buffer was added and the plates were shaken for 30 s. at 1000 rpm to start the cAMP hydrolysis reaction. The concentrations of enzyme used were: PDE4B, 80 ng/ml; PDE4D, 4 ng/ml; PDE4B2, 2.5 μl of 50% glycerol stock/ml; PDE4D5 0.083 μl of 50% glycerol stock/ml. Assay plates were covered and incubated for 30 min. at 30° C. Reactions were stopped by robotic addition of 10 μl of 5 mg/ml SPA beads (Amersham RPNQ0013) in 18 mM ZnSO4. The assay plates were covered with clear plastic film, centrifuged for 1 min. at 1000 RPM to settle the SPA beads, and counted using a Wallac TriLux scintillation counter. IC50's were calculated from the raw assay data by non-linear regression curve fitting using the Assay Explorer software package from MDL.

[4] = biological target: T4, PDE4D5: full-length human PDE4D5 isozyme (Homo sapiens, UniProt Q08499); assay: PDE4 IC50 determination by Scintillation Proximity Assay (SPA), full-length PDE4D5; assay type: biochemical; conditions: cell lysate, [3H]cAMP SPA
T4 construct: made in house; host or cells: baculovirus infected insect cells (pFastBacHT)
Outline: as §1

[5] = test system: TNF-α release from whole blood cultures stimulated with LPS; assay: IC50 by TNF alpha production upon stimulation of whole blood cultures with LPS; assay type: cell-based; conditions: human whole blood (buffy coat) culture, 100 ng/ml LPS, 4 hours; read-out: h TNFα IC50
Outline: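 Human buffy coat, diluted with 7 volumes of RPMI/2.5% heat-inactivated FBS, was preincubated with compound (8-point 1:3 series) for 1 h at 37 °C. It was then stimulated with 100 ng/ml LPS (final) for 4 h. Supernatant TNF-α was measured by sandwich ELISA at 450 nm, and IC50 was set between DMSO (0%) and PDE4-inhibitor (100%) controls.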

[6] = test system: TNFα levels in serum of LPS-challenged rats; assay: Rat inhibition studies: serum TNFα after iv LPS challenge; assay type: in vivo; conditions: 3 mg/kg po, LPS 0.1 mg/kg iv 2 h after dosing, percent decrease in serum TNFα versus vehicle, read-out: % inhibition r TNFα
Experimental: All studies were done with male rats CD (SD) IGS BR (Crl) (Charles River, France), which were grouped in to 5 animal groups.
At the end of the acclimatization period, the non-fasted rats were weighed, individually identified on the tail with a permanent marker and administered by oral (po) or interperitoneal (ip) route with either vehicle, reference or test compound in a volume of 10 mL/kg adapted to the body weight. The animals were gathered in groups of 5 animals in a polystyrene labeled cage with sawdust covered floors. 2-hours after vehicle, reference or test substance administration, rats received an intravenous (iv) injection of 0.1 mg/kg LPS in a volume of 1 mL/kg of body weight. 2 h after LPS challenge (or as indicated in Tables 3B and 4B), blood samples were collected into tubes without anticoagulant by retro-orbital puncture under gas (isoflurane) anesthesia. Samples were allowed to clot at room temperature for 5 to 10 min then put on ice until there were prepared by centrifugation (6000×g for 3 min at 4° C.) and stored at −20° C. until use. TNFα levels were measured in serum samples in duplicate by ELISA technique according to the manufacturer's procedure (Rat TNFα kit Quantikine M (RTA00, R&D System, France)). Data are reported as percent decrease in observed TNFα levels versus TNFα levels observed for vehicle dosed animal groups.

T2 sequence (Q07343 with tags, fused parts or gaps isoform Q07343-2): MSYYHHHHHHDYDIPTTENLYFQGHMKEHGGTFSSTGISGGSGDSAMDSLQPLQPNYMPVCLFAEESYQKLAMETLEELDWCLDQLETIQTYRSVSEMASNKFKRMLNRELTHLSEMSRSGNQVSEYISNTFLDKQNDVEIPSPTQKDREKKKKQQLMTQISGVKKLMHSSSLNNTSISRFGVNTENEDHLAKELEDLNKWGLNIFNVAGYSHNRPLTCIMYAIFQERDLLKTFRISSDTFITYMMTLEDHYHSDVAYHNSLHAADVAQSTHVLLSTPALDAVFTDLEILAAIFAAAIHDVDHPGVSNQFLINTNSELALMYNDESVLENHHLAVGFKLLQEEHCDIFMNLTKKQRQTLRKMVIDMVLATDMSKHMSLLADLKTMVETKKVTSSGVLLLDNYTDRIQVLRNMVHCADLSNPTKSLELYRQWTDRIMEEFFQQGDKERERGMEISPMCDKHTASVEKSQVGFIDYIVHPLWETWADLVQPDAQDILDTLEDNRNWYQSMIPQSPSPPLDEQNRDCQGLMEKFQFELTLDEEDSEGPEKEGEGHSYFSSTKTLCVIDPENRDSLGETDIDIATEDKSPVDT
T1 sequence (Q07343 324-700): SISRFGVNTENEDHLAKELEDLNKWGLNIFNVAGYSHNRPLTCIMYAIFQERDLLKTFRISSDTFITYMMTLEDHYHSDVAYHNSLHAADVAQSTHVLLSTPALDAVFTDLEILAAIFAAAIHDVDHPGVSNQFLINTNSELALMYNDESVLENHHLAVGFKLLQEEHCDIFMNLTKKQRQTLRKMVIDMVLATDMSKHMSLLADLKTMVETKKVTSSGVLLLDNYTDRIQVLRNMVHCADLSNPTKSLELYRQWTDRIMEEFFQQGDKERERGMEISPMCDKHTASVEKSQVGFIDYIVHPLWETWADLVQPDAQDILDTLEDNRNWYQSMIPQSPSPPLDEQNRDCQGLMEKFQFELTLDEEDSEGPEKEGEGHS
T3 sequence (Q08499 380-756): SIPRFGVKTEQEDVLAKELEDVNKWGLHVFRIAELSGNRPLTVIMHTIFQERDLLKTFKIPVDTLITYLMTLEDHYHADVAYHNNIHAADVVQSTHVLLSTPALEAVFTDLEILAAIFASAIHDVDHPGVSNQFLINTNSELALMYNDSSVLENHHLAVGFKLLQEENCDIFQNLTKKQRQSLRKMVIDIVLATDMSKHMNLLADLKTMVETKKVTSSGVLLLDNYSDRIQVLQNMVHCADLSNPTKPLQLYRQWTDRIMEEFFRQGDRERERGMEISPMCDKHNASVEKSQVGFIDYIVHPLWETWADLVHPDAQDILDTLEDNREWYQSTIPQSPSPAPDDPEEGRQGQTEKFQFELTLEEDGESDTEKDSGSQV
T4 sequence (Q08499 with tags, fused parts or gaps isoform Q08499-6): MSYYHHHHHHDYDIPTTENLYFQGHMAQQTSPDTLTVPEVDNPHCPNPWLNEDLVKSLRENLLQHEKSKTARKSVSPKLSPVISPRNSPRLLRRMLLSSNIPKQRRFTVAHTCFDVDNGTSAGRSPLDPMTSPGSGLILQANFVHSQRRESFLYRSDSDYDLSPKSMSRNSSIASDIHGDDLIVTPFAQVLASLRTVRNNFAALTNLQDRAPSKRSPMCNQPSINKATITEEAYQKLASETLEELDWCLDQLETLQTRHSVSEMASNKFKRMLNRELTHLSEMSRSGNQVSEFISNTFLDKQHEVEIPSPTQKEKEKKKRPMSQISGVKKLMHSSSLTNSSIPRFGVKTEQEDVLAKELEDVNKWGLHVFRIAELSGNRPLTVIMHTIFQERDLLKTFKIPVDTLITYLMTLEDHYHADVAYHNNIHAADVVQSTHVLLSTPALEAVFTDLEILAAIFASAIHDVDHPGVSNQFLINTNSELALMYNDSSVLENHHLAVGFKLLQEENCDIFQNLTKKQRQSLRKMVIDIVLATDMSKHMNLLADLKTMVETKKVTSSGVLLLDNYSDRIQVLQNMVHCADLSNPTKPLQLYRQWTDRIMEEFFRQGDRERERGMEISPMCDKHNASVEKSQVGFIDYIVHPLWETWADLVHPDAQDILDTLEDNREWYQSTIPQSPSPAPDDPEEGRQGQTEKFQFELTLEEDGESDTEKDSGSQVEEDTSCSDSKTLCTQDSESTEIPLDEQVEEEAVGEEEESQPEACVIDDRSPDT

SMILES: COc1ccc(-c2cn(C(=O)c3ccc(F)c4ccccc34)c3ncccc23)cc1OC [Compound 64, [3-(3,4-Dimethoxy-phenyl)-pyrrolo[2,3-b]pyridin-1-yl]-(4-fluoro-naphthalen-1-yl)-methanone]
- IC50 [1]: < 10 µM
- IC50 [2]: < 10 µM
- IC50 [3]: ≤ 10 µM
- IC50 [4]: < 10 µM
- IC50 [5]: ≤ 10 µM

SMILES: COc1ccc(-c2cn(C(=O)c3cccc4c(OC)cccc34)c3ncccc23)cc1OC [Compound 65, [3-(3,4-Dimethoxy-phenyl)-pyrrolo[2,3-b]pyridin-1-yl]-(5-methoxynaphthalen-1-yl)-methanone]
- IC50 [1]: < 10 µM
- IC50 [2]: < 10 µM
- IC50 [3]: ≤ 10 µM
- IC50 [4]: < 10 µM
- IC50 [5]: ≤ 10 µM

SMILES: COc1ccc(-c2cn(C(=O)c3cccc4cccnc34)c3ncccc23)cc1OC [Compound 66]
- IC50 [1]: < 10 µM
- IC50 [2]: < 10 µM
- IC50 [3]: ≤ 10 µM
- IC50 [4]: < 10 µM
- IC50 [5]: ≤ 10 µM

SMILES: COc1ccc(-c2cn(S(=O)(=O)c3ccc(-c4ccncc4C)cc3)c3ncccc23)cc1OC [Compound 69, 3-(3,4-Dimethoxy-phenyl)-1-[4-(3-methyl-pyridin-4-yl)-benzenesulfonyl]-1H-pyrrolo[2,3-b]pyridine]
- IC50 [1]: < 10 µM
- IC50 [2]: < 10 µM
- IC50 [3]: ≤ 10 µM
- IC50 [4]: < 10 µM
- IC50 [5]: ≤ 10 µM

SMILES: COc1ccc(-c2c[nH]c3ncccc23)cc1OC1CCCC1 [Compound 88, 3-(3-Cyclopentyloxy-4-methoxy-phenyl)-1H-pyrrolo[2,3-b]pyridine]
- IC50 [1]: < 10 µM
- IC50 [2]: < 10 µM
- IC50 [3]: ≤ 10 µM
- IC50 [4]: < 10 µM
- IC50 [5]: ≤ 10 µM

SMILES: COc1ccc(-c2cn(S(=O)(=O)c3cccc4cc(C)cnc34)c3ccc(Cl)cc23)cc1OC1CCCC1 [Compound 95, 8-[5-Chloro-3-(3-cyclopentyloxy-4-methoxy-phenyl)-indole-1-sulfonyl]-3-methyl-quinoline]
- IC50 [1]: < 10 µM
- IC50 [2]: < 10 µM
- IC50 [3]: ≤ 10 µM
- IC50 [4]: < 10 µM
- IC50 [5]: ≤ 10 µM

SMILES: COc1ccc(-c2cn(S(=O)(=O)c3cccc4cc(C)cnc34)c3ccc(Cl)cc23)cc1OC [Compound 96, 8-[5-Chloro-3-(3,4-Dimethoxy-phenyl)-indole-1-sulfonyl]-3-methyl-quinoline]
- IC50 [1]: < 10 µM
- IC50 [2]: < 10 µM
- IC50 [3]: ≤ 10 µM
- IC50 [4]: < 10 µM
- IC50 [5]: ≤ 10 µM

SMILES: COc1ccc(-c2cn(S(=O)(=O)c3cccc4cccnc34)c3ccccc23)cc1OC1CCCC1 [Compound 100, 8-[3-(3-Cyclopentyloxy-4-methoxy-phenyl)-indole-1-sulfonyl]-quinoline]
- IC50 [1]: < 10 µM
- IC50 [2]: < 10 µM
- IC50 [3]: ≤ 10 µM
- IC50 [4]: < 10 µM
- IC50 [5]: ≤ 10 µM

SMILES: COc1ccc(-c2cn(S(=O)(=O)c3ccccc3)c3ncccc23)cc1OC1CCCC1 [Compound 101, 1-Benzenesulfonyl-3-(3-cyclopentyloxy-4-methoxy-phenyl)-1H-pyrrolo[2,3-b]pyridine]
- IC50 [1]: < 10 µM
- IC50 [2]: < 10 µM
- IC50 [3]: ≤ 10 µM
- IC50 [4]: < 10 µM
- IC50 [5]: ≤ 10 µM

SMILES: COc1ccc(-c2cn(S(=O)(=O)c3cccc4cccnc34)c3ncccc23)cc1OC1CCCC1 [Compound 102, 8-[3-(3-Cyclopentyloxy-4-methoxy-phenyl)-pyrrolo[2,3-b]pyridine-1-sulfonyl]-quinoline]
- IC50 [1]: < 10 µM
- IC50 [2]: < 10 µM
- IC50 [3]: ≤ 10 µM
- IC50 [4]: < 10 µM
- IC50 [5]: ≤ 10 µM

SMILES: COc1ccc(-c2cn(C(=O)c3ccc(N(C)C)c4ccccc34)c3ncccc23)cc1OC [Compound 109, [3-(3,4-Dimethoxy-phenyl)-pyrrolo[2,3-b]pyridin-1-yl]-(4-dimethylamino-naphthalen-1-yl)-methanone]
- IC50 [1]: < 10 µM
- IC50 [2]: < 10 µM
- IC50 [3]: ≤ 10 µM
- IC50 [4]: < 10 µM
- IC50 [5]: ≤ 10 µM

SMILES: COc1ccc(-c2cn(C(=O)c3c(OCC(F)(F)F)ccc4ccccc34)c3ncccc23)cc1OC [Compound 112, [3-(3,4-Dimethoxy-phenyl)-pyrrolo[2,3-b]pyridin-1-yl]-[2-(2,2,2-trifluoro-ethoxy)-naphthalen-1-yl]-methanone]
- IC50 [2]: < 10 µM
- IC50 [4]: < 10 µM
- inhibition in vivo at 3 mg/kg [6]: ≥ 20%

SMILES: CCCOc1ccccc1C(=O)n1cc(-c2ccc(OC)c(OC)c2)c2cccnc21 [Compound 113, [3-(3,4-Dimethoxy-phenyl)-pyrrolo[2,3-b]pyridin-1-yl]-(2-propoxy-phenyl)-methanone]
- IC50 [1]: < 10 µM
- IC50 [2]: < 10 µM
- IC50 [3]: ≤ 10 µM
- IC50 [4]: < 10 µM
- IC50 [5]: ≤ 10 µM

SMILES: COc1ccc(-c2cn(C(=O)c3ccnc4ccccc34)c3ncccc23)cc1OC [Compound 115, [3-(3,4-Dimethoxy-phenyl)-pyrrolo[2,3-b]pyridin-1-yl]-quinolin-4-yl-methanone]
- IC50 [1]: < 10 µM
- IC50 [2]: < 10 µM
- IC50 [3]: ≤ 10 µM
- IC50 [4]: < 10 µM
- IC50 [5]: ≤ 10 µM

SMILES: COc1ccc(-c2cn(C(=O)c3cc(C)nc4ccccc34)c3ncccc23)cc1OC [Compound 116, [3-(3,4-Dimethoxy-phenyl)-pyrrolo[2,3-b]pyridin-1-yl]-(2-methyl-quinolin-4-yl)-methanone]
- IC50 [1]: < 10 µM
- IC50 [2]: < 10 µM
- IC50 [3]: ≤ 10 µM
- IC50 [4]: < 10 µM
- IC50 [5]: ≤ 10 µM

SMILES: CCOc1cc(N)ccc1C(=O)n1cc(-c2ccc(OC)c(OC)c2)c2cccnc21 [Compound 144, (4-Amino-2-ethoxy-phenyl)-[3-(3,4-dimethoxy-phenyl)-pyrrolo[2,3-b]pyridin-1-yl]-methanone]
- IC50 [1]: < 10 µM
- IC50 [2]: < 10 µM
- IC50 [3]: ≤ 10 µM
- IC50 [4]: < 10 µM
- IC50 [5]: ≤ 10 µM

SMILES: CCOc1cc(NS(C)(=O)=O)ccc1C(=O)n1cc(-c2ccc(OC)c(OC)c2)c2cccnc21 [Compound 145, N-{4-[3-(3,4-Dimethoxy-phenyl)-pyrrolo[2,3-b]pyridine-1-carbonyl]-3-ethoxy-phenyl}-methanesulfonamide]
- IC50 [1]: < 10 µM
- IC50 [2]: < 10 µM
- IC50 [3]: ≤ 10 µM
- IC50 [4]: < 10 µM
- IC50 [5]: ≤ 10 µM
